Data: patent US12110295B2, “WD40 repeat domain protein 5 (WDR5) degradation/disruption compounds and methods of use” (Icahn School of Medicine at Mount Sinai, priority 2018, dated 2024)
“Also recorded” adds a separate entry of the source.

Experiments:
MIAPACA2 cells = experiment: MTT cell proliferation assay in MIAPACA2 cells; format: cell-based; details: 0.01, 0.03, 0.1, 0.5, 1, 5 and 10 μM, 6 days, FIG. 11
Description: Assessment of the cell proliferation effects of WDR5 degraders XF056-132, XF056-173 and XF067-67 in MIAPACA2 cells (FIG. 11). MIAPACA2 cells were treated with DMSO or indicated compounds at 0.01 μM, 0.03 μM, 0.1 μM, 0.5 μM, 1 μM, 5 μM, and 10 μM for 6 days. MTT assay was used for detecting cell proliferation effects.
(§1) MIAPACA2 and Hela cells were cultured in DMEM supplemented with 10% FBS and 1% Penicillin/Streptomycin.

WDR5 [1] = molecular target: T1, WDR5 (Homo sapiens, UniProt P61964); experiment: Western blot of WDR5 protein levels in MIAPACA2 cells; format: cell-based; design: After WDR5 degrader treatment, cells were collected and lysed; endogenous in cells; host or cells: MV4;11 and/or MIAPACA2; details: 18 h; for reduction of WDR5 protein levels, concentration-dependent: MIAPACA2 cells, 0.1, 0.5, 1, 5 and 10 μM, FIG. 5
Description: MIAPACA2 cells were treated with DMSO or indicated compounds at 0.1 μM, 0.5 μM, 1 μM, 5 μM, and 10 μM for 18 hours.
MIAPACA2 cells were treated with DMSO or indicated compounds at 0.5 μM and 1.0 μM for 18 hours.
MIAPACA2 cells were treated with DMSO or indicated compounds at 0.1 μM and 0.5 μM for 18 hours.
MIAPACA2 cells were treated with DMSO or indicated compounds at 0.5 μM and 1.0 μM or at 1.0 μM and 10 μM for 18 hours.
as §1
WDR5 degraders were dissolved in DMSO and DMSO with no degraders was used as the control. 1×10^6 MV4;11 cells or 1×10^5 MIAPACA2 or 2×10^5 Hela cells were seeded in 2 mL medium for each well in […].
For prescreening of all the compounds, each test compound was added to the medium at indicated concentrations. After 18 h treatment, cells were collected.
After WDR5 degrader treatment, cells were collected and lysed. Total cell lysates were used for western blot. The following primary antibodies were used: WDR5 (Santa Cruz), vinculin (Cell Signaling Technology), tubulin (Cell Signaling Technology), GAPDH (Santa Cruz). Blots were imaged using fluorescence-labeled secondary antibodies on ChemiDoc™ Imaging Systems.

WDR5 [2] = molecular target: T1, WDR5; experiment: Screening of putative WDR5 degraders by Western blot in MV4;11 and/or MIAPACA2 cells; format: cell-based; design: After WDR5 degrader treatment, cells were collected and lysed; endogenous in cells; host or cells: MV4;11 and/or MIAPACA2; details: summary of screening, FIGS. 6-10
Summary of the method: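 MV4;11 (1×10^6/well) or MIAPACA2 (1×10^5/well) cells treated 18 h with compound at paired doses between 0.1 and 10 μM, DMSO as control. Total lysates immunoblotted for WDR5 with vinculin, tubulin or GAPDH loading controls; fluorescent secondary detection.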

WDR5 [3] = molecular target: T1, WDR5; details: MV4;11 cells, summary of FIGS. 1-3
Description: MV4;11 cells were treated with DMSO or indicated compounds at 1 μM and 10 μM for 18 hours.
MV4;11 cells were treated with DMSO or indicated compounds at 0.1 μM, 0.5 μM, 1 μM, 5 μM, and 10 μM for 18 hours.
MV4;11 cells were treated with DMSO or indicated compounds at a fixed concentration of 0.5 μM for 1, 2, 4, 8, 16, or 24 hours.
MV4;11 cells were treated with DMSO or indicated compounds at 0.1 μM and 0.5 μM for 18 hours. […] MV4;11 cells were treated with DMSO or indicated compounds at 0.1 μM and 1.0 μM for 18 hours.
WDR5 degraders were dissolved in DMSO and DMSO with no degraders was used as the control. 1×10^6 MV4;11 cells or 1×10^5 MIAPACA2 or 2×10^5 Hela cells were seeded in 2 mL medium for each well in 24-well plates.
And cells were collected at indicated timepoints: 1 h, 2 h, 4 h, 8 h, 16 h, and 24 h.

MV4;11 cells = experiment: Cell viability assay (trypan blue, live cell count) in MV4;11 cells; format: cell-based; details: 0.1, 0.5, 1, 5 and 10 μM, 72 h, FIG. 4
Description: MV4;11 cells were treated with DMSO or the indicated compounds at indicated concentration of 0.1 μM, 0.5 μM, 1 μM, 5 μM, and 10 μM for 72 hours.
MV4;11 cells were purchased from ATCC and cultured in RPMI 1640 supplemented with 10% FBS and 1% Penicillin/Streptomycin.
0.5×10^6 MV4;11 cells were seeded in 2 mL medium for each well in 12-well plates. WDR5 degraders in DMSO were added to the medium at indicated concentrations. DMSO was used as the control. Each treatment was done in duplicate wells. After 72 h treatment, 1 part cell suspension from each treatment was mixed with 1 part 0.4% trypan blue respectively. The mixture was allowed to incubate for ˜3 min at room temperature and live cells were counted by automated cell counter.

## Cc1ncsc1-c1ccc(CNC(=O)[C@@H]2C[C@@H](O)CN2C(=O)[C@@H](NC(=O)CNC(=O)c2ccc(F)c(-c3ccc(N4C[C@@H](C)N(C)[C@@H](C)C4)c(NC(=O)c4c[nH]c(=O)cc4C(F)(F)F)c3)c2)C(C)(C)C)cc1 [XF056-132, N-(2′-fluoro-5′-((2-(((S)-1-((2S,4R)-4-hydroxy-2-((4-(4-methylthiazol-5-yl)benzyl)carbamoyl)pyrrolidin-1-yl)-3,3-dimethyl-1-oxobutan-2-yl)amino)-2-oxoethyl)carbamoyl)-4-((3R,5S)-3,4,5-trimethylpiperazin-1-yl)-[1,1′-biphenyl]-3-yl)-6-oxo-4-(trifluoromethyl)-1,6-dihydropyridine-3-carboxamide]
MIAPACA2 cells
  proliferation of MIAPACA2 cells: significantly decreased the cell proliferation; also recorded: significantly reduced the proliferation of MIAPACA2 cells
WDR5 [1]; MIAPACA2 cells, 0.1 μM and 0.5 μM, FIG. 8A-8C
  degradation of WDR5: can effectively degrade WDR5 at 0.1 μM and 0.5 μM
WDR5 [2]
  effective degradation of WDR5 in MV4;11 and/or MIAPACA2 cells: able to effectively degrade WDR5

## Cc1ncsc1-c1ccc(CNC(=O)[C@@H]2C[C@@H](O)CN2C(=O)[C@@H](NC(=O)CCCCCCCCCNC(=O)c2ccc(-c3ccc(N4C[C@@H](C)N(C)[C@@H](C)C4)c(NC(=O)c4c[nH]c(=O)cc4C(F)(F)F)c3)c(F)c2)C(C)(C)C)cc1 [XF056-173, N-(2′-fluoro-4′-((10-(((S)-1-((2S,4R)-4-hydroxy-2-((4-(4-methylthiazol-5-yl)benzyl)carbamoyl)pyrrolidin-1-yl)-3,3-dimethyl-1-oxobutan-2-yl)amino)-10-oxodecyl)carbamoyl)-4-((3R,5S)-3,4,5-trimethylpiperazin-1-yl)-[1,1′-biphenyl]-3-yl)-6-oxo-4-(trifluoromethyl)-1,6-dihydropyridine-3-carboxamide]
MIAPACA2 cells
  proliferation of MIAPACA2 cells: significantly decreased the cell proliferation; also recorded: significantly reduced the proliferation of MIAPACA2 cells
WDR5 [2]
  effective degradation of WDR5 in MV4;11 and/or MIAPACA2 cells: able to effectively degrade WDR5

## CN1CCN(c2ccc(-c3cccc(CN4CCN(CCNC(=O)CCOCCOCCNc5cccc6c5C(=O)N(C5CCC(=O)NC5=O)C6=O)CC4)c3)cc2NC(=O)c2c[nH]c(=O)cc2C(F)(F)F)CC1 (stereo not drawn) [XF048-142, N-(3′-((4-(2-(3-(2-(2-((2-(2,6-dioxopiperidin-3-yl)-1,3-dioxoisoindolin-4-yl)amino)ethoxy)ethoxy)propanamido)ethyl)piperazin-1-yl)methyl)-4-(4-methylpiperazin-1-yl)-[1,1′-biphenyl]-3-yl)-6-oxo-4-(trifluoromethyl)-1,6-dihydropyridine-3-carboxamide]
WDR5 [3]
  reduction of WDR5 protein levels in a concentration- and time-dependent manner: effective in reducing WDR5 protein levels

## CN1CCN(c2ccc(-c3cccc(CN4CCN(CCNC(=O)CCOCCOCCOCCOCCOCCNc5cccc6c5C(=O)N(C5CCC(=O)NC5=O)C6=O)CC4)c3)cc2NC(=O)c2c[nH]c(=O)cc2C(F)(F)F)CC1 (stereo not drawn) [XF048-145, N-(3′-((4-(1-((2-(2,6-dioxopiperidin-3-yl)-1,3-dioxoisoindolin-4-yl)amino)-18-oxo-3,6,9,12,15-pentaoxa-19-azahenicosan-21-yl)piperazin-1-yl)methyl)-4-(4-methylpiperazin-1-yl)-[1,1′-biphenyl]-3-yl)-6-oxo-4-(trifluoromethyl)-1,6-dihydropyridine-3-carboxamide]
WDR5 [3]
  reduction of WDR5 protein levels in a concentration- and time-dependent manner: effective in reducing WDR5 protein levels

## Cc1ncsc1-c1ccc(CNC(=O)[C@@H]2C[C@@H](O)CN2C(=O)[C@@H](NC(=O)CCCCCCCCCC(=O)NCCN2CCN(Cc3cccc(-c4ccc(N5CCN(C)CC5)c(NC(=O)c5c[nH]c(=O)cc5C(F)(F)F)c4)c3)CC2)C(C)(C)C)cc1 [XF048-133, N^1-((S)-1-((2S,4R)-4-hydroxy-2-((4-(4-methylthiazol-5-yl)benzyl)carbamoyl)pyrrolidin-1-yl)-3,3-dimethyl-1-oxobutan-2-yl)-N^11-(2-(4-((4′-(4-methylpiperazin-1-yl)-3′-(6-oxo-4-(trifluoromethyl)-1,6-dihydropyridine-3-carboxamido)-[1,1′-biphenyl]-3-yl)methyl)piperazin-1-yl)ethyl)undecanediamide]
WDR5 [3]
  reduction of WDR5 protein levels in a concentration- and time-dependent manner: effective in reducing WDR5 protein levels
WDR5 [1]
  reduction of WDR5 protein levels, concentration-dependent: reduced WDR5 protein levels
WDR5 [2]
  effective degradation of WDR5 in MV4;11 and/or MIAPACA2 cells: able to effectively degrade WDR5
MV4;11 cells
  viability of MV4;11 cells: reduced the viability of MV4;11 cells much more significantly than the WDR5 inhibitor OICR-9429; also recorded: reduced the viability of MV4;11 cells much more significantly than the WDR5 inhibitor OICR-9419

## CN1CCN(c2ccc(-c3cccc(CN4CCN(CCNC(=O)CCCCCCCNc5cccc6c5C(=O)N(C5CCC(=O)NC5=O)C6=O)CC4)c3)cc2NC(=O)c2c[nH]c(=O)cc2C(F)(F)F)CC1 (stereo not drawn) [XF048-140, N-(3′-((4-(2-(8-((2-(2,6-dioxopiperidin-3-yl)-1,3-dioxoisoindolin-4-yl)amino)octanamido)ethyl)piperazin-1-yl)methyl)-4-(4-methylpiperazin-1-yl)-[1,1′-biphenyl]-3-yl)-6-oxo-4-(trifluoromethyl)-1,6-dihydropyridine-3-carboxamide]
WDR5 [1]
  reduction of WDR5 protein levels, concentration-dependent: reduced WDR5 protein levels
WDR5 [2]
  effective degradation of WDR5 in MV4;11 and/or MIAPACA2 cells: able to effectively degrade WDR5

## Cc1ncsc1-c1ccc([C@H](C)NC(=O)[C@@H]2C[C@@H](O)CN2C(=O)[C@@H](NC(=O)CCCCCCCCCC(=O)NCCN2CCN(Cc3cccc(-c4ccc(N5CCN(C)CC5)c(NC(=O)c5c[nH]c(=O)cc5C(F)(F)F)c4)c3)CC2)C(C)(C)C)cc1 [XF050-166, N^1-((S)-1-((2S,4R)-4-hydroxy-2-(((S)-1-(4-(4-methylthiazol-5-yl)phenyl)ethyl)carbamoyl)pyrrolidin-1-yl)-3,3-dimethyl-1-oxobutan-2-yl)-N^11-(2-(4-((4′-(4-methylpiperazin-1-yl)-3′-(6-oxo-4-(trifluoromethyl)-1,6-dihydropyridine-3-carboxamido)-[1,1′-biphenyl]-3-yl)methyl)piperazin-1-yl)ethyl)undecanediamide]
WDR5 [1]; MIAPACA2 cells, 0.5 μM and 1.0 μM, FIG. 7
  WDR5 degradation effects: better WDR5 degradation effects than XF048-132 and XF048-140
WDR5 [2]
  effective degradation of WDR5 in MV4;11 and/or MIAPACA2 cells: able to effectively degrade WDR5
